Data: US20240285765A1, “PHTHALOCYANINE DYE COMPOUNDS, CONJUGATES AND METHODS OF USE THEREOF” (Rakuten Medical, Inc., priority 2021, published 2024)

Legend:
[1] = Kinetic (aqueous) solubility in pH 7.4 DPBS, UV quantification; details: for solubility kinetic at 4 h: pH 7.4, aqueous buffer, kinetic from dmso stock; for Solubility* (kinetic solubility): pH 7.4 DPBS, 4 hours, room temperature (25° C.)
[2] = Singlet oxygen quantum yield, indirect method with chemical quencher (DPBF or ADMA); type: physicochemical
Excerpt: Photogeneration quantum yields of singlet oxygen (ΦΔ) were obtained by an indirect method, using either diphenylisobenzofuran (DBPF) or anthracene-9,10-bis-methylmalonate (ADMA) as chemical quenchers in either N,N-dimethylformamide or aqueous media, respectively. Typically, a solution of the phthalocyanine and the quencher was irradiated with a red LED lamp (670 nm) at 5 mW/cm^2. The initial DPBF or ADMA concentrations were kept the same for both the reference and the test samples. The degradation of the DPBF band at 414 nm or ADMA at 401 nm was monitored in a Varian Cary® 50 UV-Vis spectrophotometer, every five seconds in the case of DPBF (up to 30 seconds) and every minute in the case of ADMA (up to five minutes). ZnPc (ΦΔ=0.67) and AlPcSmix (ΦΔ=0.42) were used as references in N,N-dimethylformamide or aqueous media, respectively.
The relative method shown by Eq. (1) was employed for calculations of the ΦΔ:
[formula] • where ΦΔ and ΦΔref are the ^1O2 generation quantum yields for the sample and reference, respectively, m and mref are the DPBF or ADMA photobleaching rates in the presence of the phthalocyanine of the invention and the reference, respectively, and I and Iref are the rates of light absorption by the phthalocyanine derivative and reference, respectively. Concentrations of the test compound and reference were chosen such that their respective absorptions at the irradiation wavelength were the same.

[3] = quencher ADMA, aqueous media, 670 nm LED 5 mW/cm^2, reference AlPcSmix

Row | SMILES | solubility kinetic at 4 h ([1]; 25 °C) [µg/mL] | ΦΔ (singlet oxygen quantum yield) [2, 3] | Solubility* (kinetic solubility) [1] | other results
1 | C[Si](C)(CCC[N+](CCCCS(=O)(=O)[O-])(CCCCS(=O)(=O)[O-])CCCCS(=O)(=O)[O-])O[Si@@]1(O[Si](C)(C)CCC[N+](CCCCS(=O)(=O)[O-])(CCCCS(=O)(=O)[O-])CCOCCOCCC(=O)[O-])n2c3c4ccccc4c2/N=C2N=C(/N=c4/c5ccccc5/c(n41)=N/C1=NC(=N\3)/c3ccccc31)c1ccccc1\2.[Na+].[Na+].[Na+].[Na+] [Example 18, Sodium 2-((19-((dimethyl(3-(tris(4-sulfonatobutyl)ammonio)propyl)silyl)oxy)-19H-6,11-(azeno)-17,21-(azeno[3]episoindoloazeno)benzo[7,8][1,3,5,10]tetraaza[2]silacycloundecino[4,3-a:11,1-a′]diisoindol-19-yl)oxy)-2-methyl-6,6-bis(4-sulfonatobutyl)-9,12-dioxa-6-aza-2-silapentadecan-6-ium-15-oate] | > 100 | B (B: >0.5) |  | 
2 | C[Si](C)(CCCNC(=O)CCC[N+](CCCS(=O)(=O)[O-])(CCCS(=O)(=O)O)CCCS(=O)(=O)O)O[Si]1(O[Si](C)(C)CCCNC(=O)COCC(=O)O)n2c3c4ccccc4c2N=C2N=C(N=c4c5ccccc5c(n41)=NC1=NC(=N3)c3ccccc31)c1ccccc12.N (stereo not drawn) [Example 5, Ammonium 3-((4-((3-(((19-(((3-(2-(carboxymethoxy)acetamido)propyl)dimethylsilyl)oxy)-19H-6,11-(azeno)-17,21-(azeno[3]episoindoloazeno)benzo[7,8][1,3,5,10]tetraaza[2]silacycloundecino[4,3-a:11,1-a′]diisoindol-19-yl)oxy)dimethylsilyl)propyl)amino)-4-oxobutyl)bis(3-sulfopropyl)ammonio)propane-1-sulfonate] |  | B (B: >0.5) |  | 
3 | C[Si](C)(CCCNC(=O)COCC(=O)O)O[Si]1(O[Si](C)(C)CCCNC(=O)NCC(S(=O)(=O)O)S(=O)(=O)O)n2c3c4ccccc4c2N=C2N=C(N=c4c5ccccc5c(n41)=NC1=NC(=N3)c3ccccc31)c1ccccc12.N (stereo not drawn) [Example 8, Ammonium 2-(2-((3-(((19-(((3-(3-(2,2-disulfonatoethyl)ureido)propyl)dimethylsilyl)oxy)-19H-6,11-(azeno)-17,21-(azeno[1]episoindoloazeno)benzo[7,8][1,3,5,10]tetraaza[2]silacycloundecino[4,3-a:11,1-a′]diisoindol-19-yl)oxy)dimethylsilyl)propyl)amino)-2-oxoethoxy)acetate] |  |  | A (A: ≤1 μg/mL) | 
4 | C[Si](C)(CCC[N+](CCCCS(=O)(=O)O)(CCCCS(=O)(=O)O)CCCCS(=O)(=O)O)O[Si-2]123(O[Si](C)(C)CCC[N+](CCCCS(=O)(=O)O)(CCCCS(=O)(=O)O)CCOCCOCCOCCC(=O)O)n4c5c6ccccc6c4N=C4c6ccccc6C(=[N+]41)N=c1c4ccccc4c(n12)=NC1=[N+]3C(=N5)c2ccccc21.[Na+].[Na+].[Na+].[Na+] [Example 17, Sodium 2-((19-((dimethyl(3-(tris(4-sulfonatobutyl)ammonio)propyl)silyl)oxy)-19H-6,11-(azeno)-17,21-(azeno[3]episoindoloazeno)benzo[7,8][1,3,5,10]tetraaza[2]silacycloundecino[4,3-a:11,1-a′]diisoindol-19-yl)oxy)-2-methyl-6,6-bis(4-sulfonatobutyl)-9,12,15-trioxa-6-aza-2-silaoctadecan-6-ium-18-oate] | > 100 | B (B: >0.5) |  | 
5 | COCCOCCOCC(=O)NCCC[Si](C)(C)O[Si-2]123(O[Si](C)(C)CCCNC(=O)CCCCC(=O)O)n4c5c6ccccc6c4N=C4c6ccccc6C(=[N+]41)N=c1c4ccccc4c(n12)=NC1=[N+]3C(=N5)c2ccccc21 [Example 1, 6-((3-(dimethyl((19-((15-methyl-10-oxo-2,5,8-trioxa-11-aza-15-silahexadecan-15-yl)oxy)-19H-6,11-(azeno)-17,21-(azeno[3]episoindoloazeno)benzo[7,8][1,3,5,10]tetraaza[2]silacycloundecino[4,3-a:11,1-a′]diisoindol-19-yl)oxy)silyl)propyl)amino)-6-oxohexanoic acid] |  |  |  | ΦΔ (singlet oxygen quantum yield) ([2]; quencher DPBF, N,N-dimethylformamide, 670 nm LED 5 mW/cm^2, reference ZnPc): A (A: ≤0.5)
6 | COCCOCCOCCN(CCCOC(=O)NCCC[Si](C)(C)O[Si-2]123(O[Si](C)(C)CCCNC(=O)COCC(=O)O)n4c5c6ccccc6c4N=C4c6ccccc6C(=[N+]41)N=c1c4ccccc4c(n12)=NC1=[N+]3C(=N5)c2ccccc21)CCOCCOCCOC [Example 3, 2-(2-((3-(((19-((11-(2-(2-(2-methoxyethoxy)ethoxy)ethyl)-21-methyl-16-oxo-2,5,8,15-tetraoxa-11,17-diaza-21-siladocosan-21-yl)oxy)-19H-6,11-(azeno)-17,21-(azeno[3]episoindoloazeno)benzo[7,8][1,3,5,10]tetraaza[2]silacycloundecino[4,3-a:11,1-a′]diisoindol-19-yl)oxy)dimethylsilyl)propyl)amino)-2-oxoethoxy)acetic acid] |  |  |  | solubility kinetic at 4 h ([1]; Dulbecco's phosphate-buffered saline (DPBS), pH 7.4, 25 °C): < 1 µg/mL
7 | C[Si](C)(CCCNC(=O)CCCN(CCCS(=O)(=O)O)CCCS(=O)(=O)O)O[Si]1(O[Si](C)(C)CCCNC(=O)COCC(=O)O)n2c3c4ccccc4c2N=C2N=C(N=c4c5ccccc5c(n41)=NC1=NC(=N3)c3ccccc31)c1ccccc12.N (stereo not drawn) [Example 15, Ammonium 2-(2-((3-(((19-(((3-(4-(bis(3-sulfonatopropyl)ammonio)butanamido)propyl)dimethylsilyl)oxy)-19H-6,11-(azeno)-17,21-(azeno[1]episoindoloazeno)benzo[7,8][1,3,5,10]tetraaza[2]silacycloundecino[4,3-a:11,1-a′]diisoindol-19-yl)oxy)dimethylsilyl)propyl)amino)-2-oxoethoxy)acetate] |  |  | B (B: >1 μg/mL to ≤100 μg/mL) | 
8 | C[Si](C)(CCCNC(=O)COCC(=O)O)O[Si]1(O[Si](C)(C)CCCNC(=O)NCCS(=O)(=O)O)n2c3c4ccccc4c2N=C2N=C(N=c4c5ccccc5c(n41)=NC1=NC(=N3)c3ccccc31)c1ccccc12.N (stereo not drawn) [Example 7, Ammonium 2-(2-((3-(((19-((dimethyl(3-(3-(2-sulfonatoethyl)ureido)propyl)silyl)oxy)-19H-6,11-(azeno)-17,21-(azeno[1]episoindoloazeno)benzo[7,8][1,3,5,10]tetraaza[2]silacycloundecino[4,3-a:11,1-a′]diisoindol-19-yl)oxy)dimethylsilyl)propyl)amino)-2-oxoethoxy)acetate] |  |  | A (A: ≤1 μg/mL) | 
9 | C[Si](C)(CCC[N+](CCCS(=O)(=O)[O-])(CCCS(=O)(=O)[O-])CCCS(=O)(=O)[O-])O[Si@@]1(O[Si](C)(C)CCC[N+](CCCS(=O)(=O)[O-])(CCCS(=O)(=O)[O-])CCOCCOCCOCCC(=O)[O-])n2c3c4ccccc4c2/N=C2N=C(/N=c4/c5ccccc5/c(n41)=N/C1=NC(=N\3)/c3ccccc31)c1ccccc1\2.[Na+].[Na+].[Na+].[Na+] [Example 19, Sodium 2-((19-((dimethyl(3-(tris(3-sulfonatopropyl)ammonio)propyl)silyl)oxy)-19H-6,11-(azeno)-17,21-(azeno[3]episoindoloazeno)benzo[7,8][1,3,5,10]tetraaza[2]silacycloundecino[4,3-a:11,1-a′]diisoindol-19-yl)oxy)-2-methyl-6,6-bis(3-sulfonatopropyl)-9,12,15-trioxa-6-aza-2-silaoctadecan-6-ium-18-oate] | > 100 | B (B: >0.5) |  | 
